Assay results from PMC7764601 (Molecules, 2020).
Several values for one entry are separate records, joined by “and”; a condition that tells them apart may be missing. Identical values can stand only once. Marks after values point to notes of the source that are not given here.

Columns and labels:
[1] = system: mice; details: imides described previously; cited from earlier work
[2] = target: T1, µ receptor of the rat cerebral cortex (Rattus norvegicus, UniProt P33535); test: Displacement of [3H-DHM] from µ receptor binding sites of rat cerebral cortex; details: read-out: Dihydromorphine [3H-DHM] Ki
T1 construct: from tissue; host or cells: rat cerebral cortex
T1 sequence (P33535 whole entry): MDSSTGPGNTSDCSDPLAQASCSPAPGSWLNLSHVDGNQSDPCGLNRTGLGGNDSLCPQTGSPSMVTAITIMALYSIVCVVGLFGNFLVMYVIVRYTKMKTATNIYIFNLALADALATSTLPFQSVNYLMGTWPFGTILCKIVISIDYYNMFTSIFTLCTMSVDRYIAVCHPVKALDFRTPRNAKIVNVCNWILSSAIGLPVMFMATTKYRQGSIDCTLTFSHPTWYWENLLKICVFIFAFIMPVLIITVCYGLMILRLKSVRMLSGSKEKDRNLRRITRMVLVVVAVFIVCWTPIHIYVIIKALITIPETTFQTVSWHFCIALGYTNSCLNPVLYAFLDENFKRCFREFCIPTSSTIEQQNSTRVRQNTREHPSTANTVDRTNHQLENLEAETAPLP

[3] = system: mice; test: “Writhing” test in mice (phenylbenzoquinone); type: in vivo; details: for ED50: Mus musculus, ip, read-out: ED50 (mg/kg) ± SEM, writhing test
Protocol: (§1) The experiments were carried out on male albino Swiss mice (body weight 18–26 g). All of the animals were housed at constant humidity (60%) and temperature (25 °C) and kept on a 12 h light/dark cycle. Animals were fed a standard pellet diet with free access to tap water. All procedures were conducted according to Animal Care and Use Committee guidelines, and approved by the Ethical Committee of Jagiellonian University, Kraków.
(§2) Control and experimental groups consisted of 6–8 animals each. The investigated compounds were administered intraperitoneally as a suspension in 0.5% methylcellulose in a constant volume of 10 mL/kg.
(§3) The statistical significance was calculated using a Student’s t-test. The ED50 values and their confidence limits were calculated according to the method of Litchfield and Wilcoxon.
(§4) Pain reactivity was measured in two tests: “hot plate” test (according to the method of Eddy and Leimbach) and “writhing” test in mice (according to Hendershot and Forsaith).
Then, after 25 min, the irritant (phenylbenzoquinone, 0.02% solution, ethanol-water, 5:95) was also administered intraperitoneally in a constant volume of 0.25 mL. Five min after the application of the irritant,a 10 min long period of observation started, in which the number of writhing episodes was counted.
The analgesic effect of individual doses was expressed in percent:(1) % Analgesic effect=100−∑ of writing incidents in experimental group/∑ of writhing incidents in control group×100

[4] = system: mice; test: “Hot plate” test in mice; type: in vivo; details: mice; for analgesic effect in the hot plate test (in words): applied doses (Table 4)
Protocol: as §1, §2, §3, §4
Animals were placed individually on the metal plate, heated to 55 ± 1 °C. The latency time (s) to the pain reaction (licking of the hind paws or jumping) was recorded by a stop-watch. A cutoff time of 45 s was used to prevent tissue damage.

[5] = in vivo; type: in vivo; details: male, albino Swiss, mouse, in vivo, ip; mice, intraperitoneal, mortality after 24 h; confidence limits in parentheses
Protocol: as §1, §2

[6] = system: mice; test: Spontaneous locomotor activity in mice (photoresistor actometers); type: in vivo; details: for ED50: confidence limits in parentheses, read-out: ED50 (mg/kg) ± SEM, spontaneous locomotor activity; for Number of impulses ± SEM (30min): i.p.
Protocol: as §1, §2
Spontaneous locomotor activity in mice was measured in circular photoresistoractometers (32 cm in diameter). […] Thirty minutes after the injection of the investigated compounds, mice were placed in the actometers for 30 min. Each crossing of the light beam was recorded automatically. The amount of impulses was noted after 30 min.

[7] = system: mice; test: Thiopental anesthesia (thiopental-induced sleep); type: in vivo; details: for Prolongation (%) of thiopental anesthesia / Duration of Anesthesia ± SEM: i.p.; for Duration of Anesthesia ± SEM: thiopental
Excerpt: The pilot biological studies for imides 9 and 11 were supplemented with the determination of the effect of the intraperitoneal administration of the test compounds on the duration of thiopental-induced sleep. The mechanism and the degree of crossing the blood–brain barrier has not been precisely defined. The observed sedative effects may indicate good penetration of compounds into the central nervous system, which, however, has not been confirmed.
as §2

[8] = confidence limits in parentheses
[9] = Mus musculus, ip, 0.5 h, hot plate, dose 100 mg/kg, read-out: Prolonged Time (%)
[10] = Mus musculus, ip, 0.5 h, hot plate, dose 200 mg/kg, read-out: Prolonged Time (%)
[11] = Mus musculus, ip, dose 25 mg/kg, read-out: Degree of motor inhibition (%)
[12] = Mus musculus, ip, dose 50 mg/kg, read-out: Degree of motor inhibition (%)
[13] = Mus musculus, ip, dose 100 mg/kg, read-out: Degree of motor inhibition (%)
[14] = Mus musculus, ip, dose 200 mg/kg, read-out: Degree of motor inhibition (%)
[15] = Mus musculus, ip, dose 12.5 mg/kg, read-out: Degree of motor inhibition (%)

SMILES | ED50 [3, 8] | Mean no. of writhing ± SEM ([3]; i.p., dose 25 mg/kg) | Mean no. of writhing ± SEM ([3]; i.p., dose 50 mg/kg) | Mean no. of writhing ± SEM ([3]; i.p., dose 100 mg/kg) | change in vivo at 100 mg/kg [4, 9] | change in vivo at 200 mg/kg [4, 10] | Time of Reaction to Pain Stimulus (s) ± SEM ([4]; hot plate, dose 100 mg/kg) | Time of Reaction to Pain Stimulus (s) ± SEM ([4]; hot plate, dose 200 mg/kg) | LD50 at 24 h [5] | ED50 ([6]; Mus musculus, ip) | inhibition at 25 mg/kg [6, 11] | inhibition at 50 mg/kg [6, 12] | inhibition at 100 mg/kg [6, 13] | Number of impulses ± SEM (30min) ([6]; dose 25 mg/kg) | Number of impulses ± SEM (30min) ([6]; dose 50 mg/kg) | Number of impulses ± SEM (30min) ([6]; dose 100 mg/kg) | Mean no. of writhing ± SEM ([3]; i.p., dose 12.5 mg/kg) | other results
COc1nc(C)cc2c1C(=O)N(CCCN1CCN(c3cccc(Cl)c3)CC1)C2=O [Compound 1J] |  |  |  |  |  |  |  |  |  |  |  |  |  |  |  |  |  | ED50, writhing test [1]: 8.8 mg/kg; Ki [2]: > 100 µM
CCOc1nc(C)cc2c1C(=O)N(CCN1CCN(c3ccccc3)CC1)C2=O [Compound 10] | 15.8 ± 0.91 mg/kg | 7.9 ± 2.1 | 2.1 ± 0.6 | 0.9 ± 0.1 | 6.98% | 34.9% | 18.4 ± 1.7 s | 23.2 ± 2.6 s | > 2000 mg/kg | 84 ± 5.1 mg/kg | 49.2% | 55.1% | 6.8% | 224 ± 45 | 198 ± 54 | 142 ± 29 |  | analgesic effect in the hot plate test (in words) [4]: not statistically significant
COc1nc(C)cc2c1C(=O)N(CN1CCN(c3cccc(Cl)c3)CC1)C2=O [Compound 13] | 14.8 mg/kg | 5.9 ± 0.8 | 3.8 ± 1.9 | 0.8 ± 0.1 | 4.07% | 11.6% | 17.9 ± 2.4 s | 19.2 ± 1.8 s | > 2000 mg/kg | 164 ± 28.7 mg/kg |  | 7.93% | 32.2% |  | 406 ± 34 | 299 ± 49 | 14.1 ± 1.0 | inhibition at 200 mg/kg [6, 14]: 59.6%; Number of impulses ± SEM (30min) ([6]; dose 200 mg/kg): 178 ± 32
COc1nc(C)cc2c1C(=O)N(CCCCN1CCOCC1)C2=O [Compound 8, 4-methoxy-6-methyl-4-(N-morpholino)-butyl-1H-pyrrolo[3,4-c]pyridine-1,3-(2H)-dion] |  | 6.2 ± 0.9 |  |  | 3.87% | 27.5% | 10.2 ± 1.8 s | 12.2 ± 1.4 s | > 2000 mg/kg | 34.2 mg/kg | 35.4% | 61.6% |  | 299 ± 59 | 178 ± 30 |  | 19.8 ± 2.1 | analgesic effect in the hot plate test (in words) [4]: not statistically significant; inhibition at 5 mg/kg ([6]; Mus musculus, ip, dose 5 mg/kg, read-out: Degree of motor inhibition (%)): 18.1%; inhibition at 12.5 mg/kg [6, 15]: 32.8%; Number of impulses ± SEM (30min) ([6]; dose 5 mg/kg): 387 ± 24; Number of impulses ± SEM (30min) ([6]; dose 12.5 mg/kg): 312 ±26
COc1ccccc1N1CCN(CCN2C(=O)c3cc(C)nc(OC)c3C2=O)CC1 [Compound 11] | 3.67 mg/kg |  | 1.4 ± 0.6 |  | 23% | 50.7% | 24.0 ± 5.0 s | 29.4 ± 5.0 s | > 2000 mg/kg | 19.7 mg/kg | 55.9% | 68.7% |  | 199.1 ± 48 | 141 ± 63 |  | 4.3 ± 1.1 | ED50 (mg/kg) ± SEM, writhing test ([3]; i.p., confidence limits in parentheses): 3.25 mg/kg; Mean no. of writhing ± SEM ([3]; i.p., dose 3.125 mg/kg): 17.7 ± 2.4; Mean no. of writhing ± SEM ([3]; i.p., dose 6.25 mg/kg): 6.0 ± 2.8; Prolongation (%) of thiopental anesthesia ([7]; dose 12.5 mg/kg): 36.3%; Prolongation (%) of thiopental anesthesia ([7]; dose 25 mg/kg): 16.11%; Prolongation (%) of thiopental anesthesia ([7]; dose 50 mg/kg): 140.8 *** % and 140.8%; effect on duration of thiopental anesthesia (in words) ([7]; mouse, in vivo): extended the duration of thiopental anesthesia; Duration of Anesthesia ± SEM ([7]; dose 12.5 mg/kg): 70.2 ± 24 min; Duration of Anesthesia ± SEM ([7]; dose 25 mg/kg): 50.8 ± 14.2 min; Duration of Anesthesia ± SEM ([7]; dose 50 mg/kg): 124 ± 16.2 min; change in vivo at 400 mg/kg ([4]; Mus musculus, ip, 0.5 h, hot plate, dose 400 mg/kg, read-out: Prolonged Time (%)): 105%; Time of Reaction to Pain Stimulus (s) ± SEM ([4]; hot plate, dose 400 mg/kg): 40.0 ± 8.5 s; inhibition at 6.25 mg/kg ([6]; Mus musculus, ip, dose 6.25 mg/kg, read-out: Degree of motor inhibition (%)): 28.2%; inhibition at 12.5 mg/kg [6, 15]: 55.4%; Number of impulses ± SEM (30min) ([6]; dose 6.25 mg/kg): 324 ± 49; Number of impulses ± SEM (30min) ([6]; dose 12.5 mg/kg): 201 ± 74
CCOc1nc(C)cc2c1C(=O)N(CCN1CCN(c3ccccc3OC)CC1)C2=O [Compound 12] | 14.9 ± 2.01 mg/kg | 9.7 ± 1.1 | 2.4 ± 0.3 | 1.9 ± 0.4 | 28.5% | 52.3% | 22.1 ± 2.7 s | 26.2 ± 3.1 s | > 2000 mg/kg | 85 ± 4.2 mg/kg | 11.8% | 34.5% | 59.2% | 389 ± 54 | 289 ± 72 | 180 ± 41 | 13.9 ± 2.3 | inhibition at 200 mg/kg [6, 14]: 76.2%; Number of impulses ± SEM (30min) ([6]; dose 200 mg/kg): 105 ± 48
CCOc1nc(C)cc2c1C(=O)N(CCCN1CCN(c3cccc(Cl)c3)CC1)C2=O [Compound 2J] |  |  |  |  |  |  |  |  |  |  |  |  |  |  |  |  |  | ED50, writhing test [1]: 8.7 mg/kg; Ki [2]: > 100 µM
